# Experimental data as given in patent EP2787958B1, “CHELIDONIUM MAJUS EXTRACTS AND THEIR USE IN THE TREATMENT OF SKIN DISORDERS AND PROMOTION OF SKIN REGENERATION” (priority 2011, dated 2013).
# Like-named read-outs stand apart in the source and are kept apart here.
# Legend:
# [1] = system: HDF cells; experiment: Summary of uses and toxic effects deduced from the cell assays (Table 1); format: cell-based, Human; settings: for Anti-fibrotic (prevention of scar formation, also from acne) / Cytoprotective (antioxidant, anti-inflammatory and anti-ageing; useful also in the treatment of acne) / Cytotoxic / Irritant / Wound-healing: 24 hours
# Description: Antiradical (skin protective): this is deduced from the free radical scavenger effects.
# Revitalizing: this is deduced from the increased mitochondrial dehydrogenase effect.
# Cytoprotective, with regard to oxidative damage (antioxidant, anti-inflammatory and anti-ageing): this is deduced from antagonising the stimulation of IL-1β and/or IL-6 induced by 100 µM H2O2 and from the absence of changes in cell morphology similar to the ones due to cell senescence.
# Wound healing: this is deduced from the effect of inhibiting the production of IL-1β and by the effect of stimulating cell proliferation under standard growth conditions.
# Cytotoxicity: this is deduced from the effect of reducing mitochondrial dehydrogenase activity or from the presence of morphologies characteristic of cell senescence.
# Irritation: this is deduced from the effect of increased production of IL-6 and/or IL-1β under standard growth conditions.
# Said uses in the fields of medicine and cosmetics or the toxic effects of the substances of the invention at a given dosage, for 24 hours, are summarized in Table 1 below.
# [2] = system: Human dermal fibroblasts (HDF); experiment: Mitochondrial dehydrogenase activity (WST-1 formazan assay) in HDF cells; settings: for Revitalizing agent: 24 hours; for activity at 1 µM / activity at 10 µM: Homo sapiens, Fibroblast, read-out: % mitochondrial dehydrogenase activity ± SD
# [3] = system: interleukin 1β (IL-1β); experiment: Inflammatory cytokines in cell supernatant (Mosaic ELISA microarray): IL-1β; format: cell-based, Human; settings: for IL-1β ng/(ml* No. of cells from photo) ± SD: 24 hours
# Description: (§1) The inflammatory cytokines, CD40 ligand (CD40L), interferon γ (INF-γ), interleukin 1α (IL-1α), interleukin 1β (IL-1β), interleukin 6 (IL-6), interleukin 8 (IL-8), interleukin 17 (IL-17) and tumour necrosis factor α (TNF-α) were determined qualitatively and quantitatively. Each measurement was performed in duplicate using a Mosaic™ ELISA protein microarray assay system from R&D System in accordance with the supplier's instructions. Furthermore, with the aim of obtaining a correlation model between light signal intensity and cytokine concentration, a calibration curve using 6 concentrations was performed for each of them. Analysis of the data was performed using the dedicated Q-View™ Imager software package from Quansys Biosciences
# [4] = system: collagen produced by HDF cells; experiment: Quantity of collagen produced by the cells (elution of Sirius Red)
# [5] = Anti-radical activity (decay of the DPPH radical); format: biochemical; settings: for Anti-radical (skin protective): 24 hours
# Description: With regard to assays aimed at evaluating anti-radical activity, a chemical test was used where the decay of the diphenylpicrylhydrazyl (DPPH) radical is assessed in the absence or in the presence of the test substances. Indeed, the DPPH radical is used to test the ability of substances to act as free radical scavengers. DPPH in solution has a purple colour with a maximum absorbance peak at 517 nm which changes to yellow-colourless when this radical extracts a hydrogen atom from a radical scavenger to give rise to the reduced form DPPH-H. The assay has been conducted in quadruplicate in 96 well microplates (SARSTEDT Tissue Culture Plate 96-well flat bottom cell+). 50 µl of an ethanol solution of the test substance at 2X concentration and then 50 µl of a 200 µM solution of DPPH (MW 168,18, Aldrich 2,2-di(4-tert-octylphenyl)-1-picrylhydrazyl, free radical Lot# MKBF7574V Cat N° 257621-100 mg) have been added to each well of the microplate. A positive control consisting of 0.1 mM vitamin C and a negative control consisting of ethanol alone were included in each microplate. After 30 minutes from the addition of DPPH, photographs of the plates were taken (Canon PowerShot A610 5.0 Mpixels) and read spectrophotometrically at 530 nm.
# Based on the analysis of the results reported in Table 9, some substances were selected for further characterisation of their anti-radical activity. For the selected substances, dose-activity curves were obtained and the IC50 value were computed using a non-linear regression model with the Hill equation at variable slope. Such substances had been selected due to both their anti-radical potential and the easiness of their isolation/production. The selection of substances was made in view of cosmetics applications. Moreover their activity on human dermal fibroblasts (HDF) is expected to be useful also for the development of dermatological medications. The selected substances are discussed below.
# [6] = system: interleukin 6 (IL-6); experiment: Inflammatory cytokines in cell supernatant (Mosaic ELISA microarray): IL-6; format: cell-based, Human; settings: for IL-6 ng/(ml* No. of cells from photo) ± SD: 24 hours
# Description: as §1
# [7] = system: HDF cells; experiment: Evaluation of cell proliferation (counting of Sirius Red stained cells in photographs); settings: for No. of cells from photo ± SD: 24 hours
# [8] = Dose 1 µm (coptisine: 1 pm [sic])
smiles,measurement,setting,value
COc1ccc2c(c[n+](C)c3c4cc5c(cc4ccc23)OCO5)c1OC [chelerythrine],"Anti-fibrotic (prevention of scar formation, also from acne)",[1]; [8],"Yes (↓collagen, ↓IL-6, ↓IL-1β)"
same,"Cytoprotective (antioxidant, anti-inflammatory and anti-ageing; useful also in the treatment of acne)",[1]; [8],"Yes (↓IL-6, ↓IL-1β)"
same,Cytotoxic,[1]; [8],No
same,Irritant,[1]; [8],No
same,Wound-healing,[1]; [8],"Yes (↑prolif, ↓IL-1β)"
same,"Anti-fibrotic (prevention of scar formation, also from acne)",[1]; Dose 10 µm,No
same,"Cytoprotective (antioxidant, anti-inflammatory and anti-ageing; useful also in the treatment of acne)",[1]; Dose 10 µm,No
same,Cytotoxic,[1]; Dose 10 µm,"Yes (cell death, ↓dehydrogenase)"
same,Irritant,[1]; Dose 10 µm,"Yes (↑IL-6, ↑IL-1β)"
same,Wound-healing,[1]; Dose 10 µm,No
same,concentrations at which no toxic (cytotoxic and irritant) effects are shown,[1]; exposure for 24 hours,less than or equal to 1 µM
same,concentrations above which the predominant effect is inhibition of mitochondrial dehydrogenase activity,[2],higher than 1 nM
same,mitochondrial dehydrogenase activity (effect in words),"[2]; 1 µM, 18 h",stimulation of mitochondrial dehydrogenase activity
same,Revitalizing agent,[2]; [8],Yes
same,Revitalizing agent,[2]; Dose 10 µm,No
same,activity at 1 µM,[2]; 18 h,107 ± 10.5%
same,activity at 10 µM,[2]; 18 h,0.87 ± 0.74%
same,activity at 1 µM,[2]; 42 h,63.9 ± 4.3%
same,activity at 10 µM,[2]; 42 h,0.63 ± 8.46%
same,inhibitory power toward the mitochondrial dehydrogenase activity,[2]; skin fibroblast cells and/or keratinocytes,marked inhibitory power
same,IL-1β production (effect in words),"[3]; 1 µM, 34 ng/ml TGF-β1",antagonizes the production of IL-1β
same,IL-1β ng/(ml* No. of cells from photo) ± SD,"[3]; 1 µM, 34 ng/ml TGF-β1",98±10 ng/(ml* No. of cells from photo)
same,IL-1β production (effect in words),"[3]; 1 µM, 100 µM H2O2",antagonizes the production of IL-1β
same,IL-1β ng/(ml* No. of cells from photo) ± SD,"[3]; 1 µM, 100 µM H2O2",69±20 ng/(ml* No. of cells from photo)
same,IL-1β ng/(ml* No. of cells from photo) ± SD,"[3]; 1 µM, Standard conditions",96±101 ng/(ml* No. of cells from photo)
same,IL-1β production (effect in words),"[3]; 1 µM, standard conditions",inhibits the production of IL-1β
same,IL-1β production (effect in words),"[3]; 10 µM, 34 ng/ml TGF-β1",stimulates IL-1β production
same,IL-1β ng/(ml* No. of cells from photo) ± SD,"[3]; 10 µM, 34 ng/ml TGF-β1",1632±93 ng/(ml* No. of cells from photo)
same,IL-1β production (effect in words),"[3]; 10 µM, 100 µM H2O2",stimulates IL-1β production
same,IL-1β ng/(ml* No. of cells from photo) ± SD,"[3]; 10 µM, 100 µM H2O2",1735±469 ng/(ml* No. of cells from photo)
same,IL-1β ng/(ml* No. of cells from photo) ± SD,"[3]; 10 µM, Standard conditions",144±4 ng/(ml* No. of cells from photo)
same,IL-1β production (effect in words),"[3]; 10 µM, standard conditions",stimulates IL-1β production
same,collagen production (effect in words),"[4]; 1 µM, 34 ng/ml TGF-β1",antagonizes the stimulation of collagen induced by 34 ng/ml TGF-β1
same,collagen production (effect in words),"[4]; 1 µM, 100 µM H2O2",tendency to stimulate collagen production
same,collagen production (effect in words),"[4]; 1 µM, standard conditions",tendency to inhibit collagen production
same,collagen production (effect in words),"[4]; 10 µM, 34 ng/ml TGF-β1",stimulates collagen production
same,collagen production (effect in words),"[4]; 10 µM, 100 µM H2O2",stimulates collagen production
same,collagen production (effect in words),"[4]; 10 µM, standard conditions",stimulates collagen production
same,% DPPH activity,"[5]; 1 mM, 30 minutes",115%
same,Anti-radical (skin protective),[5]; [8],No
same,Anti-radical (skin protective),[5]; Dose 10 µm,No
same,IL-6 production (effect in words),"[6]; 1 µM, 34 ng/ml TGF-β1",antagonizes the production of IL-6
same,IL-6 ng/(ml* No. of cells from photo) ± SD,"[6]; 1 µM, 34 ng/ml TGF-β1",510±43 ng/(ml* No. of cells from photo)
same,IL-6 production (effect in words),"[6]; 1 µM, 100 µM H2O2",antagonizes the production of IL-6
same,IL-6 ng/(ml* No. of cells from photo) ± SD,"[6]; 1 µM, 100 µM H2O2",626±8 ng/(ml* No. of cells from photo)
same,IL-6 ng/(ml* No. of cells from photo) ± SD,"[6]; 1 µM, Standard conditions",396±14 ng/(ml* No. of cells from photo)
same,IL-6 production (effect in words),"[6]; 1 µM, standard conditions",inhibits the production of IL-6
same,IL-6 production (effect in words),"[6]; 10 µM, 34 ng/ml TGF-β1",stimulates IL-6 production
same,IL-6 ng/(ml* No. of cells from photo) ± SD,"[6]; 10 µM, 34 ng/ml TGF-β1",4652±243 ng/(ml* No. of cells from photo)
same,IL-6 production (effect in words),"[6]; 10 µM, 100 µM H2O2",stimulates IL-6 production
same,IL-6 ng/(ml* No. of cells from photo) ± SD,"[6]; 10 µM, 100 µM H2O2",5844±328 ng/(ml* No. of cells from photo)
same,IL-6 ng/(ml* No. of cells from photo) ± SD,"[6]; 10 µM, Standard conditions",572±14 ng/(ml* No. of cells from photo)
same,IL-6 production (effect in words),"[6]; 10 µM, standard conditions",stimulates IL-6 production
same,cell proliferation (effect in words),[7]; 1 µM,tendency to stimulate cell proliferation
same,No. of cells from photo ± SD,"[7]; 1 µM, 34 ng/ml TGF-β1",201±15
same,No. of cells from photo ± SD,"[7]; 1 µM, 100 µM H2O2",289±14
same,No. of cells from photo ± SD,"[7]; 1 µM, Standard conditions",229±20
same,cell proliferation (effect in words),[7]; 10 µM,marked inhibition of proliferation
same,No. of cells from photo ± SD,"[7]; 10 µM, 34 ng/ml TGF-β1",10±4
same,No. of cells from photo ± SD,"[7]; 10 µM, 100 µM H2O2",10±5
same,No. of cells from photo ± SD,"[7]; 10 µM, Standard conditions",3±3
